# Laboratory results taken from ChEMBL document CHEMBL1201862, “PubChem BioAssay data set” (2004).
#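 Briefly, cells in 96-well plates were exposed to five compound concentrations for 48 h, and endpoints were estimated by linear interpolation. Abbreviation: GI50, concentration required for 50% inhibition of growth.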 Active and inactive are the calls of the source. Rule as the data show it: active = GI50 up to about 1.1 µM and inactive = higher.
# How the values were obtained:
# Assay in all cases: NCI anticancer screen, dose series, 48 h
# COLO 205 = tested on: COLO 205
# HCT-116 = tested on: HCT-116
# IGROV-1 = tested on: IGROV-1
# KM12 = tested on: KM12
# Malme-3M = tested on: Malme-3M
# NCI-H23 = tested on: NCI-H23
# NCI-H460 = tested on: NCI-H460
# RPMI-8226 = tested on: RPMI-8226
# RXF 393 = tested on: RXF 393
# SF-539 = tested on: SF-539
# SK-MEL-2 = tested on: SK-MEL-2
# SK-OV-3 = tested on: SK-OV-3
# SN12C = tested on: SN12C
# SNB-19 = tested on: SNB-19
# SR = tested on: SR
# SW-620 = tested on: SW-620
# UACC-257 = tested on: UACC-257
# UO-31 = tested on: UO-31
# SF-268 = tested on: SF-268
Compound,GI50 (COLO 205),GI50 (HCT-116),GI50 (IGROV-1),GI50 (KM12),GI50 (Malme-3M),GI50 (NCI-H23),GI50 (NCI-H460),GI50 (RPMI-8226),GI50 (RXF 393),GI50 (SF-539),GI50 (SK-MEL-2),GI50 (SK-OV-3),GI50 (SN12C),GI50 (SNB-19),GI50 (SR),GI50 (SW-620),GI50 (UACC-257),GI50 (UO-31),GI50 (SF-268)
[O-][n+]1c(CN2CCCCC2)nc2cccc3c2c1-c1ccccc1-3,16.9 µM (inactive),12.8 µM (inactive),23.5 µM (inactive),26.4 µM (inactive),14.3 µM (inactive),20.3 µM (inactive),18 µM (inactive),23.7 µM (inactive),13.7 µM (inactive),23.9 µM (inactive),23 µM (inactive),26.1 µM (inactive),17.1 µM (inactive),23.9 µM (inactive),43.5 µM (inactive),28.8 µM (inactive),18.4 µM (inactive),11.9 µM (inactive),
O=C1CCC2(c3ccc(Cl)cc3)Nc3ccccc3N12 (stereo not drawn),> 100 µM (inactive),57 µM (inactive),> 100 µM (inactive),> 100 µM (inactive),> 100 µM (inactive),42.6 µM (inactive),> 100 µM (inactive),53.7 µM (inactive),48.3 µM (inactive),> 100 µM (inactive),> 100 µM (inactive),,> 100 µM (inactive),> 100 µM (inactive),34.4 µM (inactive),> 100 µM (inactive),> 100 µM (inactive),49.7 µM (inactive),83.9 µM (inactive)
OC(Cn1cncn1)(Cn1cncn1)c1ccc(Cl)cc1Cl,> 100 µM (inactive),> 100 µM (inactive),> 100 µM (inactive),> 100 µM (inactive),> 100 µM (inactive),> 100 µM (inactive),> 100 µM (inactive),> 100 µM (inactive),> 100 µM (inactive),> 100 µM (inactive),> 100 µM (inactive),> 100 µM (inactive),> 100 µM (inactive),,> 100 µM (inactive),> 100 µM (inactive),> 100 µM (inactive),> 100 µM (inactive),> 100 µM (inactive)
C/C(CCN(C)C)=N\OC(=O)c1ccccc1,> 100 µM (inactive),> 100 µM (inactive),> 100 µM (inactive),> 100 µM (inactive),> 100 µM (inactive),> 100 µM (inactive),> 100 µM (inactive),> 100 µM (inactive),> 100 µM (inactive),> 100 µM (inactive),> 100 µM (inactive),> 100 µM (inactive),> 100 µM (inactive),> 100 µM (inactive),> 100 µM (inactive),> 100 µM (inactive),> 100 µM (inactive),> 100 µM (inactive),> 100 µM (inactive)
COc1cc2c(cc1OC)[C@@H](C(O)c1ccccc1)NCC2 (stereo partly drawn),> 100 µM (inactive),> 100 µM (inactive),> 100 µM (inactive),> 100 µM (inactive),> 100 µM (inactive),> 100 µM (inactive),> 100 µM (inactive),,> 100 µM (inactive),> 100 µM (inactive),> 100 µM (inactive),> 100 µM (inactive),> 100 µM (inactive),> 100 µM (inactive),> 100 µM (inactive),> 100 µM (inactive),> 100 µM (inactive),> 100 µM (inactive),> 100 µM (inactive)
CCOP1(=O)CC(C)=C(Cl)C(OC)C1 (stereo not drawn),> 100 µM (inactive),> 100 µM (inactive),> 100 µM (inactive),> 100 µM (inactive),> 100 µM (inactive),> 100 µM (inactive),> 100 µM (inactive),> 100 µM (inactive),> 100 µM (inactive),> 100 µM (inactive),> 100 µM (inactive),> 100 µM (inactive),> 100 µM (inactive),> 100 µM (inactive),> 100 µM (inactive),> 100 µM (inactive),> 100 µM (inactive),,> 100 µM (inactive)
CNS(=O)(=O)NN(C)S(=O)(=O)c1ccc(C)cc1,> 100 µM (inactive),> 100 µM (inactive),> 100 µM (inactive),> 100 µM (inactive),> 100 µM (inactive),> 100 µM (inactive),> 100 µM (inactive),> 100 µM (inactive),> 100 µM (inactive),> 100 µM (inactive),> 100 µM (inactive),> 100 µM (inactive),> 100 µM (inactive),> 100 µM (inactive),> 100 µM (inactive),> 100 µM (inactive),> 100 µM (inactive),> 100 µM (inactive),> 100 µM (inactive)
COC(=O)C1=CC(=O)[C@@H]2CCCC[C@H]12,> 100 µM (inactive),> 100 µM (inactive),,> 100 µM (inactive),> 100 µM (inactive),,> 100 µM (inactive),> 100 µM (inactive),> 100 µM (inactive),> 100 µM (inactive),> 100 µM (inactive),> 100 µM (inactive),> 100 µM (inactive),> 100 µM (inactive),> 100 µM (inactive),> 100 µM (inactive),> 100 µM (inactive),> 100 µM (inactive),> 100 µM (inactive)
c1ccc2c(c1)NC(C1OC3CCCN3C1C1Nc3ccccc3S1)S2 (stereo not drawn),83.6 µM (inactive),55.3 µM (inactive),> 100 µM (inactive),46.5 µM (inactive),> 100 µM (inactive),29 µM (inactive),41.2 µM (inactive),23 µM (inactive),21.2 µM (inactive),> 100 µM (inactive),,> 100 µM (inactive),> 100 µM (inactive),> 100 µM (inactive),22.3 µM (inactive),> 100 µM (inactive),48.3 µM (inactive),55.1 µM (inactive),> 100 µM (inactive)
CC1=C(Cl)C=CP(=O)(OC(C)C)C1 (stereo not drawn),> 100 µM (inactive),37.2 µM (inactive),> 100 µM (inactive),> 100 µM (inactive),> 100 µM (inactive),> 100 µM (inactive),> 100 µM (inactive),50.2 µM (inactive),> 100 µM (inactive),> 100 µM (inactive),> 100 µM (inactive),,> 100 µM (inactive),,46.2 µM (inactive),67.8 µM (inactive),> 100 µM (inactive),> 100 µM (inactive),> 100 µM (inactive)
c1ccc(-c2ccnc3c2ccc2c(-c4ccccc4)ccnc23)cc1,2.98 µM (inactive),0.555 µM (active),0.931 µM (active),0.628 µM (active),4.06 µM (inactive),1.85 µM (inactive),2.39 µM (inactive),,1.83 µM (inactive),2.06 µM (inactive),3.37 µM (inactive),2.65 µM (inactive),2.26 µM (inactive),1.19 µM (inactive),0.273 µM (active),3.72 µM (inactive),2.28 µM (inactive),0.5 µM (active),3.12 µM (inactive)
